The text below walks through data of paper PMC4456024 (Chemical biology & drug design, 2014).

This experiment has as its target cardiac troponin C (cNTnC) (Homo sapiens, UniProt P63316, C35S/C84S). Kind of experiment: 2D 1H, […]-HSQC NMR titration, […] fit. Format: binding.

The term Kd denotes the constant that tells how readily two partners part at equilibrium. A higher Kd goes with weaker binding. `Cc1ccc(C)c(N2CCN(c3ccncc3N)CC2)c1` [compound 6, 4-(4-(2,5-dimethylphenyl)-1-piperazinyl)-3-pyridinamine] had a Kd of 721 ± 16 µM.
